One series relates to MCF-7 cells. Description: MCF-7 cell colony formation (clonogenic) assay. In kind it is cell-based. Conditions: Homo sapiens, MCF7, 240 h, 10 d. Here is the method: The effect of the compound on colony formation by MCF-7 cells was assessed using a clonogenic assay. The concentration of MCF-7 cells was 0.33 × 10^3/mL. The cells were incubated for 10 d, fixed with methanol (25 min), stained with 0.5% crystal violet solution (25 min), and washed with PBS. The grown colonies were counted using a BIO-PRINT-Cx4 Edge-Fixed Pad-Container (Vilber, Collegien, France). The results are presented as colony inhibition compared to that of the control.

For series [1], the system named is MDA-MB-231 breast cancer cells. Nature of the series: Cell viability assay (MTT). In kind it is cell-based, human. The gist of the method:
(§1)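 Seeding/well: H9c2 3 × 10^3; MDA-MB-231, MCF-10A 5 × 10^3; HaCaT 1 × 10^4. Treatment began 24 h post-seeding; compounds ≤100 µM, 24 h or 48 h, 37 °C. Read-out MTT, % of DMSO control.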

The nature of series [2]: Cell viability assay (MTT). The format is cell-based, human. Conditions: human, read-out: Cytotoxicity IC50. The gist of the method: as §1
A further series has as its system MCF-7 spheroids. Description: Three-dimensional culture of MCF-7 cells, spheroid area. In kind it is cell-based, human. Here is the method:
The anticancer effect of petromurin C (8) was investigated using a 3D culture of MCF-7 cells (Figure 12). MCF-7 spheroids were formed in agarose microwells using MSLA-printed stamps. Compound 8 (10 µM and 20 µM) was added 24 h after the cells were seeded.
MCF-7 cell spheroids were formed in agarose microwells as described previously. Briefly, agarose (2.8%) heated to 60 °C was added to each well of a 96-well plate, and MSLA-printed stamps with microcylinders were inserted and then removed after agarose solidification. Each well contained 34 microwells with a diameter of 300 μm. MCF-7 cells at a concentration of 2 × 10^4 cells/well were added to each well and gently centrifuged to precipitate the cells that had gathered in the microwells. Petromurin C (8) was added after 24 h, and observations were performed daily using an MIB-2-FL fluorescence microscope (Lomo Microsystems, St. Petersburg, Russia) The spheroid area was calculated using CellProfiler software v. 4.2.8 [51, 52]. In total, at least 20 of the same spheroids in each variant were analyzed daily and data were calculated as mean ± SEM.

Series [3] concerns Escherichia coli VKPM (B-7935). Description: Antimicrobial assay, growth inhibition (optical density). The format is cell-based. Conditions: E. coli, 18 h. The gist of the method: (§2)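 MIC50 values derive from percent-of-control data: 50% reduction of growth (OD620, 18 h) or of biofilm (MTT, OD570, 18 h). Test compound ≤100 µM; 1% DMSO in PBS served as negative control.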
For a further series, the system named is HCT116 cells. More on the design: method as in PMID 29642369. Conditions: HCT116, at 100 µM; cited from earlier work.
Series [4] relates to Staphylococcus aureus ATCC 21027. Description: Biofilm formation assay (MTT). The settings on record: S. aureus, 18 h. The format is cell-based. The gist of the method: as §2
The test system of a further series is A549 cells. More on the design: method as in PMID 29642369. The settings on record: A549, at 100 µM; cited from earlier work.
Setting [5] is: MCF-7 breast cancer cells, MCF-7, 24 h.
Setting [6] is: MCF-7 breast cancer cells, MCF-7, 48 h.
The mark [7] stands for this setting: MCF-10A breast epithelial cells, MCF10A, 24 h.
[8] abbreviates: MCF-10A breast epithelial cells, MCF10A, 48 h.
Setting [9] is: MDA-MB-231 breast cancer cells, MDA-MB-231, 24 h.
[10] abbreviates: MDA-MB-231 breast cancer cells, MDA-MB-231, 48 h.

≈ marks a conversion by molar mass, not a printed value. Like-named read-outs stand apart in the source and are kept apart here.

Results on 2 compounds are retold here after PMC12471299, “Secondary Metabolites of the Marine Sponge-Derived Fungus Aspergillus subramanianii 1901NT-1.40.2 and Their Antimicrobial and Anticancer Activities” (Marine Drugs, 2025).

On to `COc1c(OC)c(-c2c[nH]c3ccc(O)cc23)c(OC)c(OC)c1-c1c[nH]c2ccccc12` [Compound 8, petromurin C], for which at 5 µM the inhibition with MCF-7 cells (5 µM) was 16.8%. For the same compound, in the series with MCF-7 cells (10 µM), the inhibition – broadly, the share of the control response that was lost under treatment – at 10 µM is 20.4%. The cell viability is 89.4 ± 2.4 % of control in series [1] (MDA-MB-231, 24 h, 1.0 µM); 103.6 ± 2.2 % of control in series [1] (MDA-MB-231, 24 h, 10.0 µM); 63.7 ±4.8 % of control in series [1] (MDA-MB-231, 24 h, 100.0 µM); 102.9 ± 0.5 % of control in series [1] (MDA-MB-231, 48 h, 1.0 µM); 89.5 ± 3.1 % of control in series [1] (MDA-MB-231, 48 h, 10.0 µM); 38.6 ± 1.7 % of control in series [1] (MDA-MB-231, 48 h, 100.0 µM). Moreover, the IC50 (as a rule, the midpoint of a concentration-inhibition curve) at 24 h in series [2] (HaCaT keratinocytes, 24 h) was > 100 µM; in series [2] (setting [5]), > 100 µM; in series [2] (setting [7]) it was ≥ 100 µM; in series [2] (setting [9]), > 100 µM. The IC50 at 48 h in series [2] (HaCaT keratinocytes, 48 h) turned out to be 80.5 ± 1.8 µM; in series [2] (setting [6]), 61.5 ± 1.2 µM; in series [2] (setting [8]) it was 91 ± 4.1 µM; in series [2] (setting [10]), 79.9 ± 1.2 µM. In addition, the “decrease of spheroid area” value with MCF-7 spheroids (10 µM, after 24 h) was determined as 19.1%; in the series with MCF-7 spheroids (10 µM, after 72 h), 28.9%; in the series with MCF-7 spheroids (20 µM, after 24 h), 29.8%; in the series with MCF-7 spheroids (20 µM, after 72 h), 32.6%. In addition, the “decrease of the area of MCF-7 3D spheroids” value with MCF-7 spheroids (abstract, concentration and time not stated) is “approximately 30%”.
Consider `COC1=C(c2c[nH]c3ccccc23)C(=O)C(CC=C(C)C)=C(c2c[nH]c3ccccc23)C1=O` [Compound 6, kumbicin D], for which the cell viability in series [1] (MDA-MB-231, 24 h, 1.0 µM) was 93.6 ± 4.8 % of control; in series [1] (MDA-MB-231, 24 h, 10.0 µM), 84.5 ± 6.7 % of control; in series [1] (MDA-MB-231, 24 h, 100.0 µM), 32.7 ± 5.2 % of control; in series [1] (MDA-MB-231, 48 h, 1.0 µM), 100.6 ± 2.2 % of control; in series [1] (MDA-MB-231, 48 h, 10.0 µM) it was 90.8 ± 1.2 % of control; in series [1] (MDA-MB-231, 48 h, 100.0 µM), 14.7 ± 0.6 % of control. Further, the concentration for half-maximal inhibition (IC50) at 24 h in series [2] (HaCaT keratinocytes, 24 h) was > 100 µM; in series [2] (setting [5]), 62.2 ± 2.2 µM; in series [2] (setting [7]) it was 65.7 ± 1.9 µM; in series [2] (setting [9]), 74.4 ± 0.6 µM. Further, the IC50 at 48 h in series [2] (HaCaT keratinocytes, 48 h) amounted to 49.4 ± 1.2 µM; in series [2] (setting [6]), 47.3 ± 1.7 µM; in series [2] (setting [8]), 55.6 ± 2.3 µM; in series [2] (setting [10]) it was 58.2 ± 2 µM. In addition, in series [3], the “Growth inhibition, MIC50” value came to 11.42 ± 1.02 µM. Also, in series [3] (Escherichia coli), the MIC50 (usually an inhibitory concentration at the 50% level, which refers to growth in some studies and to a panel of isolates in others) lay in the range of 7 to 11 µM (≈ 3.06 to 4.8 µg/mL). Moreover, the “effect on cells” value with HCT116 cells and in the series with A549 cells was “weak effects” each time. In addition, in series [4], the “Biofilm formation, MIC50” value is given as 7.98 ± 0.57 µM.
